Values quoted from earlier work as cited in patent US12156898B2, “Formulations of terlipressin” (BIOVIE Inc., priority 2019, dated 2024).
Bridge positions count the residues as written; N and C are the ends. Peptide text beside a SMILES is read from it.

Experiments:
patients = conditions: human, in vivo
[1] = in vivo

## NCCCC[C@H](NC(=O)[C@@H]1CCCN1C(=O)[C@@H]1CSSC[C@H](NC(=O)CNC(=O)CNC(=O)CN)C(=O)N[C@@H](Cc2ccc(O)cc2)C(=O)N[C@@H](Cc2ccccc2)C(=O)N[C@@H](CCC(N)=O)C(=O)N[C@@H](CC(N)=O)C(=O)N1)C(=O)NCC(N)=O [terlipressin] (H-GGGCYFQNCPKG-NH2; disulfide 4-9)
patients
  severe side effects requiring discontinuation of treatment, share of patients: up to 10%
  side effects, share of patients: up to 40%
[1]
  half-life: short half-life
